Measurements reported in PubChem BioAssay AID179 (DTP/NCI, 2004).
Calls of active or inactive are those of the source.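 The calls were made as follows: active = compounds giving half or more protection of infected cells from virus-caused growth loss, again on retest; inactive = the rest.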 Where a SMILES comes first, the peptide text is derived from it. The star is where a group is joined. Cbz = O=C(OCc1ccccc1)*; Boc = CC(C)(C)OC(=O)*; Bn = c1ccc(C*)cc1

System: CEM cells HIV-1 protection, formazan growth assay
Assay: NCI AIDS Antiviral Assay
Conditions: for IC50: measured here: growth of uninfected CEM cells
Method in brief: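 Category rules: moderately active means at least 50% protection on retest, and confirmed active means 100% protection reproducibly. The underlying data came from a formazan growth assay in HIV-1-infected CEM cells.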

SMILES | outcome | EC50 | IC50
COCC1OC2(CCC[C@H]2O)O[C@H]1COC (stereo not given in full) | inactive |  | 
CCCOC(C(=O)OC1CCC2CCC1N2C)(c1ccccc1)c1ccccc1 (stereo not given) |  | > 200 µM | 28.8 µM
O=C(C[n+]1ccccc1)NNC(=O)/C(=C/c1ccc2c(c1)OCO2)NC(=O)c1ccccc1 |  | > 7.76 µM | > 7.76 µM
O=P(CP(=O)(c1ccccc1)c1ccccc1)(c1ccccc1)c1ccccc1.[CH3][Sn]([CH3])([Cl])[Cl] | inactive |  | 
C[C@]12CCC3[C@@H](CC[C@@H]4c5nonc5CC[C@]34C)C1C/C(=N/O)C2=O (stereo not given in full) |  | > 105 µM | 95.5 µM
C(COC1CC2CC1C1CC3OC3C21)OCCOC1CC2CC1C1CC3OC3C21 (stereo not given) |  | > 200 µM | 77.6 µM
C/C=C1/CN2C3CC1C1(C(=O)OC)C(OC(C)=O)[C@]4(C[C@H]21)c1cc(OC)ccc1N(C)C34 (stereo not given in full) | inactive |  | 
COc1cc(Cl)cc(N(O)C(C)=O)c1OCc1ccccc1 |  | > 562 µM | 58.9 µM
O=C(O)[C@@H]1CSC(c2ccncc2)N1 (stereo not given in full) |  | > 200 µM | > 200 µM
CCOC(=O)/C(=C\c1c[nH]c2ccccc12)P(=O)(OCC)OCC |  | > 200 µM | 38 µM
CCOC(=O)CNC(=O)C(C)NC(=O)C(NC(=O)OCc1ccccc1)C(C)C (stereo not drawn) (Cbz-Val-Ala-Gly-OEt; configuration not given here) |  | > 200 µM | 115 µM
COc1ccc(NC(=O)CC/C(CC(=O)c2ccco2)=N/Nc2ccc([N+](=O)[O-])cc2[N+](=O)[O-])cc1 |  | > 52.5 µM | 30.9 µM
CN(C)C=C1C(=O)NC(=O)NC1=O |  | > 200 µM | > 200 µM
CN(C)c1ccc(/C=C(\C#N)c2nc(-c3cc4ccccc4oc3=O)cs2)cc1 |  | 9.77 µM | > 100 µM
Cc1cc2ccccc2n1CC(=O)N1CCCC1 |  | > 200 µM | > 200 µM
C=CCCCN1C(=O)CCC1=O | inactive |  | 
CCc1c([N+](=O)[O-])cc2c(c1[N+](=O)[O-])C(C)(C)CCC2C (stereo not given) |  | > 200 µM | 14.5 µM
CCOC(=O)c1sc2[n+](c1C)C(=O)/C(=C/c1ccccc1Cl)S2 |  | > 200 µM | 3.39 µM
CNN1C(=O)c2c(C)c(C)c(C#N)c(N)c2C1=O |  | > 200 µM | > 200 µM
CN1N=Nc2ccccc2C1(O)c1ccc(F)cc1 (stereo not given) |  | > 200 µM | > 200 µM
CCN(CC)C1=CC(=O)C(=O)c2cccnc21 | inactive |  | 

SMILES | outcome | EC50 | IC50
Cc1cccc(NC(=O)O/N=C(\Cl)C(C)C)c1 |  | > 20 µM | 2.82 µM
CC1CCCC2=C1C(=O)N(CSCN1C(=O)C3=C(C1=O)C(C)CCC3)C2=O (stereo not given) |  | > 200 µM | 141 µM
CC1(C)OC(=O)N(c2ccccc2)C12C=Cc1cc([N+](=O)[O-])ccc1O2 (stereo not given) |  | > 151 µM | 61.7 µM
C/C(C=O)=C\c1ccc(F)cc1 |  | > 219 µM | > 219 µM
CC1(CO)OC(n2cnc3c(N)ncnc32)C(O)C1O (stereo not given) |  | > 891 µM | > 891 µM
C[N+](C)(C)CCCS(=O)(=O)[O-] |  | > 200 µM | > 200 µM
O=c1cc[nH]cc1-c1c[nH]ccc1=O | inactive |  | 
COc1ccc(-n2sc3ncc(C)cc3c2=O)cc1 |  | 0.49 µM | 10.5 µM
O=C1NC2CSC(CCCCC(=O)ON3C(=O)CCC3=O)C2N1 (stereo not given) |  | > 741 µM | 123 µM
CCN(CC)C1CS(=O)(=O)OC(c2ccccc2)=C1C (stereo not given) |  | > 316 µM | 22.4 µM
O=C(CCCN1CCc2[nH]c3cc(F)ccc3c2C1)c1ccc(F)cc1 |  | > 200 µM | 24.5 µM
C/C(=C\CCC1=CC(=O)OC1)CCC1C2C(=O)CC(C)[C@@]3(C)CC[C@]1(C)[C@@]23C (stereo not given in full) |  | > 200 µM | 34.7 µM
CC1=NC(=Cc2cccc(Cl)c2)C(=O)N1n1c(-c2ccccc2)nc2ccccc2c1=O |  | > 200 µM | 36.3 µM
Nc1nc(N)c2ncn(CCOC(c3ccccc3)P(=O)(O)O)c2n1 (stereo not given) |  | > 200 µM | > 200 µM
CC(C)(C)c1cc(COc2c3sc(=S)sc3c(OCc3cc(C(C)(C)C)cc(C(C)(C)C)c3)c3sc(=S)sc23)cc(C(C)(C)C)c1 | inactive |  | 
COC(=O)C(CC(C)C)NC(=O)CNC(=O)C(Cc1ccc(OCc2ccccc2)cc1)NC(=O)C(COCc1ccccc1)NC(=O)OC(C)(C)C (stereo not given) (Boc-S(Bn)Y(Bn)GL-OMe; configuration not given here) |  | > 200 µM | 115 µM
CC(C)(C)C1=CP(=O)(c2ccccc2)C=C(C(C)(C)C)N1 |  | > 200 µM | > 200 µM
CC1=C(C(=O)Nc2ccccc2C)C(c2ccc(N(C)C)cc2)C(C(=O)Nc2ccccc2C)=C(C)N1 |  | > 14.5 µM | > 14.5 µM
C=C(Cn1cnc2c(N)ncnc21)C(=O)OC |  | > 107 µM | 7.76 µM
O=[N+]([O-])c1ccc2nc(/C=C(\O)c3ccccc3)c(/C=C(\O)c3ccccc3)nc2c1 |  | > 200 µM | 20 µM
